Test results: ChEMBL document CHEMBL1131176, “Structure-based enhancement of boronic acid-based inhibitors of AmpC beta-lactamase” (J Med Chem, 1998)

Experiments:
Beta-lactamase [1] = target: T1, Beta-lactamase (Escherichia coli K-12, UniProt P00811); assay: Inhibitory activity against Escherichia coli AmpC beta-lactamase.
Chymotrypsinogen A = Chymotrypsinogen A (Bos taurus, UniProt P00766); assay: Compound was tested for its specificity against alpha-chymotrypsin
Homo sapiens = species on record: Homo sapiens; assay: Compound was tested for its specificity against Elastase
Beta-lactamase [2] = target: T1, Beta-lactamase; assay: Compound was tested for its specificity against AmpC beta-lactamase

T1 sequence (P00811 whole entry): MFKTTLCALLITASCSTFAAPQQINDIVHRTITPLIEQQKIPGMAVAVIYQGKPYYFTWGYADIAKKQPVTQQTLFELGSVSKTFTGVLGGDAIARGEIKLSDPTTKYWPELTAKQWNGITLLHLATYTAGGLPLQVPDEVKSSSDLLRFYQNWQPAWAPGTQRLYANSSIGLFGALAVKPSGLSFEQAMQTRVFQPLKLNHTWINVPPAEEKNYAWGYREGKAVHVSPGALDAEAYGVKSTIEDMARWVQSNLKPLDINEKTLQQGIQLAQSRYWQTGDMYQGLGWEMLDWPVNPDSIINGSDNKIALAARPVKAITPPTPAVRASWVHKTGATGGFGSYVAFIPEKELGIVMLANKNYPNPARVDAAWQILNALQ

| Compound | Ki (Beta-lactamase [1]) | IC50 (Chymotrypsinogen A) | IC50 (Homo sapiens) | IC50 (Beta-lactamase [2]) |
| --- | --- | --- | --- | --- |
| CCCCB(O)O [BUTYL BORONIC ACID] | > 100 µM |  |  |  |
| OB(c1ccccc1)c1ccccc1 [DIPHENYL BORINIC ACID] | > 100 µM |  |  |  |
| OB(O)c1ccc(-c2ccc(B(O)O)cc2)cc1 | 0.2 µM |  |  |  |
| OB(O)c1ccco1 | > 100 µM |  |  |  |
| OB(O)c1cccs1 |  | > 200 µM | 200 µM |  |
| OB(O)c1cc2ccccc2c2ccccc12 | 7 µM |  |  |  |
| OB(O)[C@@H]1CCOC1 |  | > 200 µM | > 200 µM | 5 µM |
| O=C(O)c1cccc(B(O)O)c1 | > 100 µM |  |  |  |
| CN(C)c1cccc2c(S(=O)(=O)Nc3cccc(B(O)O)c3)cccc12 [M(DANSYLAMIDOPHENYL)BORONIC ACID] | 1.3 µM | > 100 µM | 50 µM | 5 µM |
| O=Cc1ccsc1B(O)O | 3.8 µM |  |  |  |

The next lines start with the values.

| Ki (Beta-lactamase [1]) | IC50 (Chymotrypsinogen A) | IC50 (Homo sapiens) | IC50 (Beta-lactamase [2]) | Compound |
| --- | --- | --- | --- | --- |
| 5.4 µM |  |  |  | Cc1ccc(B(O)O)cc1 [TOLYL BORONIC ACID] |
|  | 5 µM |  |  | OB(O)c1cc2ccccc2s1 |
| 2.9 µM |  |  |  | O=Cc1ccc(B(O)O)cc1 |
| 3 µM |  |  |  | OB(O)c1ccc(C(F)(F)F)cc1 |
| 5.9 µM |  |  |  | COc1ccc(B(O)O)cc1 |
| 12 µM |  |  |  | OB(O)c1cccc2ccccc12 |
| 1.1 µM | > 200 µM | > 200 µM | 5 µM | OB(O)c1cccc(C(F)(F)F)c1 |
| 10.5 µM |  |  |  | OB(O)c1ccccc1 [PHENYLBORONIC ACID] |
| 3.9 µM |  |  |  | OB(O)c1ccc(B(O)O)cc1 |
| 6.4 µM |  |  |  | OB(O)c1ccc(F)cc1 |
| 3.6 µM |  |  |  | OB(O)c1ccc(Br)cc1 |
| 0.41 µM | > 100 µM | 200 µM | 2 µM | OB(O)c1ccc(Cl)s1 |
| 1.6 µM |  |  |  | CC(=O)c1ccc(B(O)O)s1 |
| 22.1 µM |  |  |  | OB(O)c1ccsc1 |
| 25.3 µM |  |  |  | O=Cc1ccccc1B(O)O |
| 0.22 µM | 14 µM |  | 0.6 µM | OB(O)c1cc2ccccc2o1 |
